Laboratory results: patent EP4806911A1, “TRIPLE AGONIST COMPOUND” (Chengdu Aoda Biotechnology Co., Ltd, priority 2023, dated 2025)

Experiment: Preliminary pharmacokinetic characteristic evaluation
Assay type: in vivo, cynomolgus monkeys
Settings: for half-life: cynomolgus monkey, sc, male cynomolgus monkeys, administered subcutaneously at 0.2 mg/kg, plasma, LC-MS; for half-lives: cynomolgus monkeys, administered subcutaneously
Experimental: Among the above compounds, the principle of modification for long-acting was essentially the same.
The test animals were male cynomolgus monkeys. Two animals were used for each compound. The compounds were administered subcutaneously at a dose of 0.2 mg/kg. Blood samples were collected via intravenous sampling prior to administration (0 h) and at 1 h, 2 h, 3 h, 4 h, 8 h, 12 h, 18 h, 24 h, 48 h, 96 h, 144 h, and 168 h after administration. Plasma samples were obtained by centrifugation. The plasma concentrations of the compounds were respectively determined by liquid chromatography - mass spectrometry (LC-MS).

| Compound | half-life | half-lives |
| --- | --- | --- |
| CC[C@H](C)[C@H](NC(=O)[C@H](Cc1ccccc1)NC(=O)[C@H](C)NC(=O)C(C)(C)NC(=O)[C@H](CCC(N)=O)NC(=O)[C@H](C)NC(=O)[C@H](CCCCNC(=O)COCCOCCNC(=O)CCC[C@H](NC(=O)CCCCCCCCCCCCCCCCCCC(=O)O)C(=O)O)NC(=O)[C@H](CCCCN)NC(=O)[C@H](CC(=O)O)NC(=O)[C@H](CC(C)C)NC(=O)C(C)(CC(C)C)NC(=O)[C@@H](NC(=O)[C@H](CO)NC(=O)[C@H](Cc1ccc(O)cc1)NC(=O)[C@H](CC(=O)O)NC(=O)[C@H](CO)NC(=O)[C@@H](NC(=O)C(C)(Cc1ccccc1F)NC(=O)[C@@H](NC(=O)CNC(=O)[C@H](CCC(N)=O)NC(=O)C(C)(C)NC(=O)[C@@H](N)Cc1ccc(O)cc1)[C@@H](C)O)[C@@H](C)O)[C@@H](C)CC)C(=O)N[C@@H](CCC(=O)O)C(=O)N[C@@H](Cc1ccc(O)cc1)C(=O)N[C@@H](CC(C)C)C(=O)N[C@@H](CC(C)C)C(=O)N[C@@H](CCC(=O)O)C(=O)NCC(=O)NCC(=O)N1CCC[C@H]1C(=O)N[C@@H](CO)C(=O)N[C@@H](CO)C(=O)NCC(=O)N[C@@H](C)C(=O)N1CCC[C@H]1C(=O)N1CCC[C@H]1C(=O)N1CCC[C@H]1C(=O)N[C@@H](CO)C(N)=O (stereo partly shown) [Compound 6] | 94.7 h | greater than 80 hours |
| CC[C@H](C)[C@H](NC(=O)[C@H](Cc1ccccc1)NC(=O)[C@H](C)NC(=O)C(C)(C)NC(=O)[C@H](CCC(N)=O)NC(=O)[C@H](C)NC(=O)[C@H](CCCCNC(=O)COCCOCCNC(=O)CCC[C@H](NC(=O)CCCCCCCCCCCCCCCCCCC(=O)O)C(=O)O)NC(=O)[C@H](CCCCN)NC(=O)[C@H](CC(=O)O)NC(=O)[C@H](CC(C)C)NC(=O)C(C)(CC(C)C)NC(=O)[C@@H](NC(=O)[C@H](CO)NC(=O)[C@H](Cc1ccc(O)cc1)NC(=O)[C@H](CC(=O)O)NC(=O)[C@H](CO)NC(=O)[C@@H](NC(=O)C(C)(Cc1ccccc1)NC(=O)[C@@H](NC(=O)CNC(=O)[C@H](CCC(N)=O)NC(=O)C(C)(C)NC(=O)[C@@H](N)Cc1ccc(O)cc1)[C@@H](C)O)[C@@H](C)O)[C@@H](C)CC)C(=O)N[C@@H](CCC(=O)O)C(=O)N[C@@H](Cc1ccc(O)cc1)C(=O)N[C@@H](CC(C)C)C(=O)N[C@@H](CC(C)C)C(=O)N[C@@H](CCC(=O)O)C(=O)NCC(=O)NCC(=O)N1CCC[C@H]1C(=O)N[C@@H](CO)C(=O)N[C@@H](CO)C(=O)NCC(=O)N[C@@H](C)C(=O)N1CCC[C@H]1C(=O)N1CCC[C@H]1C(=O)N1CCC[C@H]1C(=O)N[C@@H](CO)C(N)=O (stereo partly shown) [Compound 2] | 83.5 h | greater than 80 hours |
